Among the data in paper PMC10953011, “Oxygen‐insensitive nitroreductase E. coli NfsA, but not NfsB, is inhibited by fumarate” (Proteins, 2022) are Ki values, retold here.

As usually defined, the Ki is the dissociation constant of the complex between target and ligand, obtained from inhibition or displacement.

Assay [1] deals with T1, NfsA (Escherichia coli, UniProt P17117).
T1 sequence (P17117 1-240): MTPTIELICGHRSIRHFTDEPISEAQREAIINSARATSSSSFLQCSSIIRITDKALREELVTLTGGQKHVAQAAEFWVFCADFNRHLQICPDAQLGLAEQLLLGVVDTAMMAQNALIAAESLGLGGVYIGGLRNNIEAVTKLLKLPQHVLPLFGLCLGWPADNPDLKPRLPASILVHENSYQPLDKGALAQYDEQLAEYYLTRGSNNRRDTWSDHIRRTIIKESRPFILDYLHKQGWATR
In words: X-ray crystal structure ([…] Å); steady-state inhibition kinetics with nitrofurazone and NADPH. Type of assay: biochemical. The arrangement: untagged full-length, 240 residues, dimer.

Assay [2] concerns the target T1, NfsA. In words: steady-state inhibition kinetics with nitrofurazone and NADPH, […] nm. The class given is biochemical. The arrangement: untagged full-length.

On to `O=C(O)/C=C/C(=O)O` [fumarate], for which the affinity at NfsA [1], expressed as Ki, was 0.145 ± 0.028 mM. For the compound `O=C(O)CCC(=O)O` [succinate], the Ki on NfsA [2] amounted to 4.3 ± 0.6 mM.
